PubChem BioAssay (NCI)
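Protocol summary: plate cells (96-well), add compound at 5 concentrations, incubate 48 h, interpolate endpoints linearly. GI50 marks 50% less growth. TGI: total growth inhibition.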

Columns and labels:
Experiment in all cases: NCI tumour cell line growth inhibition, 48 h
M14 melanoma = test system: M14 melanoma
OVCAR-8 ovarian = test system: OVCAR-8 ovarian
HCT-15 colon = test system: HCT-15 colon
HCT-116 colon = test system: HCT-116 colon
EKVX NSCLC = test system: EKVX NSCLC
OVCAR-3 ovarian = test system: OVCAR-3 ovarian
SN12C renal = test system: SN12C renal
NCI/ADR-RES ovarian = test system: NCI/ADR-RES ovarian
K-562 leukemia = test system: K-562 leukemia
HCC-2998 colon = test system: HCC-2998 colon
MDA-MB-468 breast = test system: MDA-MB-468 breast
HOP-92 NSCLC = test system: HOP-92 NSCLC
HOP-62 NSCLC = test system: HOP-62 NSCLC
UACC-62 melanoma = test system: UACC-62 melanoma
MALME-3M melanoma = test system: MALME-3M melanoma
A498 renal = test system: A498 renal
CAKI-1 renal = test system: CAKI-1 renal
RXF 393 renal = test system: RXF 393 renal
TK-10 renal = test system: TK-10 renal
NCI-H226 lung = test system: NCI-H226 lung
LOX IMVI melanoma = test system: LOX IMVI melanoma
SNB-19 CNS = test system: SNB-19 CNS
UO-31 renal = test system: UO-31 renal
SK-OV-3 ovarian = test system: SK-OV-3 ovarian
SR leukemia = test system: SR leukemia
NCI-H23 lung = test system: NCI-H23 lung
MDA-MB-435 = test system: MDA-MB-435
HL-60(TB) leukemia = test system: HL-60(TB) leukemia
PC-3 prostate = test system: PC-3 prostate
SW-620 colon = test system: SW-620 colon
OVCAR-5 ovarian = test system: OVCAR-5 ovarian
DU-145 prostate = test system: DU-145 prostate
786-0 renal = test system: 786-0 renal
HS 578T breast = test system: HS 578T breast
KM12 colon = test system: KM12 colon
MCF7 breast = test system: MCF7 breast
SNB-75 CNS = test system: SNB-75 CNS
SK-MEL-28 melanoma = test system: SK-MEL-28 melanoma
U251 CNS = test system: U251 CNS
HT29 colon = test system: HT29 colon
MOLT-4 leukemia = test system: MOLT-4 leukemia
SF-268 CNS = test system: SF-268 CNS
CCRF-CEM leukemia = test system: CCRF-CEM leukemia
UACC-257 melanoma = test system: UACC-257 melanoma
SF-539 CNS = test system: SF-539 CNS
BT-549 breast = test system: BT-549 breast
SK-MEL-2 melanoma = test system: SK-MEL-2 melanoma
NCI-H460 lung = test system: NCI-H460 lung
OVCAR-4 ovarian = test system: OVCAR-4 ovarian
IGROV1 ovarian = test system: IGROV1 ovarian
ACHN renal = test system: ACHN renal
RPMI-8226 leukemia = test system: RPMI-8226 leukemia
SF-295 CNS = test system: SF-295 CNS
NCI-H522 lung = test system: NCI-H522 lung
T-47D breast = test system: T-47D breast
SK-MEL-5 melanoma = test system: SK-MEL-5 melanoma
MDA-MB-231 breast = test system: MDA-MB-231 breast

C=C(C)[C@@H]1CC[C@]2(C(=O)OC)CC[C@]3(C)[C@H](CC[C@@H]4[C@@]5(C)CC[C@H](N)C(C)(C)[C@@H]5CC[C@]43C)[C@@H]12
GI50 (M14 melanoma): 1990 nM
TGI (M14 melanoma): 4.28 µM
GI50 (OVCAR-8 ovarian): 2040 nM
TGI (OVCAR-8 ovarian): 4.4 µM
GI50 (HCT-15 colon): 1640 nM
TGI (HCT-15 colon): 3.05 µM
GI50 (HCT-116 colon): 1480 nM
TGI (HCT-116 colon): 3.26 µM
GI50 (EKVX NSCLC): 1830 nM
TGI (EKVX NSCLC): 3.32 µM
GI50 (OVCAR-3 ovarian): 1490 nM
TGI (OVCAR-3 ovarian): 2900 nM
GI50 (SN12C renal): 1750 nM
TGI (SN12C renal): 3.27 µM
GI50 (NCI/ADR-RES ovarian): 1850 nM
TGI (NCI/ADR-RES ovarian): 3.51 µM
GI50 (K-562 leukemia): 711 nM
TGI (K-562 leukemia): 12.7 µM
GI50 (HCC-2998 colon): 1650 nM
TGI (HCC-2998 colon): 3.07 µM
GI50 (MDA-MB-468 breast): 1770 nM
TGI (MDA-MB-468 breast): 3.26 µM
GI50 (HOP-92 NSCLC): 1580 nM
TGI (HOP-92 NSCLC): 3.13 µM
GI50 (HOP-62 NSCLC): 1830 nM
TGI (HOP-62 NSCLC): 3.55 µM
GI50 (UACC-62 melanoma): 1770 nM
TGI (UACC-62 melanoma): 3.24 µM
GI50 (MALME-3M melanoma): 1710 nM
TGI (MALME-3M melanoma): 3.09 µM
GI50 (A498 renal): 1450 nM
TGI (A498 renal): 2780 nM
GI50 (CAKI-1 renal): 1620 nM
TGI (CAKI-1 renal): 3.02 µM
GI50 (RXF 393 renal): 1580 nM
TGI (RXF 393 renal): 3.07 µM
GI50 (TK-10 renal): 1890 nM
TGI (TK-10 renal): 3.47 µM
GI50 (NCI-H226 lung): 1940 nM
TGI (NCI-H226 lung): 3.77 µM
GI50 (LOX IMVI melanoma): 1330 nM
TGI (LOX IMVI melanoma): 2640 nM
GI50 (SNB-19 CNS): 1720 nM
TGI (SNB-19 CNS): 3.24 µM
GI50 (UO-31 renal): 1510 nM
TGI (UO-31 renal): 2840 nM
GI50 (SK-OV-3 ovarian): 2220 nM
TGI (SK-OV-3 ovarian): 5.45 µM
GI50 (SR leukemia): 379 nM
TGI (SR leukemia): 3.05 µM
GI50 (NCI-H23 lung): 1780 nM
TGI (NCI-H23 lung): 3.31 µM
GI50 (MDA-MB-435): 1620 nM
TGI (MDA-MB-435): 3.1 µM
GI50 (HL-60(TB) leukemia): 1440 nM
TGI (HL-60(TB) leukemia): 3.83 µM
GI50 (PC-3 prostate): 1890 nM
TGI (PC-3 prostate): 4.07 µM
GI50 (SW-620 colon): 1140 nM
TGI (SW-620 colon): 2490 nM
GI50 (OVCAR-5 ovarian): 1690 nM
TGI (OVCAR-5 ovarian): 3.13 µM
GI50 (DU-145 prostate): 1850 nM
TGI (DU-145 prostate): 3.37 µM
GI50 (786-0 renal): 1700 nM
TGI (786-0 renal): 3.33 µM
GI50 (HS 578T breast): 2000 nM
TGI (HS 578T breast): 4.29 µM
GI50 (KM12 colon): 1770 nM
TGI (KM12 colon): 3.31 µM
GI50 (MCF7 breast): 1050 nM
TGI (MCF7 breast): 2340 nM
GI50 (SNB-75 CNS): 1480 nM
TGI (SNB-75 CNS): 2920 nM
GI50 (SK-MEL-28 melanoma): 1680 nM
TGI (SK-MEL-28 melanoma): 3.08 µM
GI50 (U251 CNS): 1750 nM
TGI (U251 CNS): 3.27 µM
GI50 (HT29 colon): 1830 nM
TGI (HT29 colon): 3.51 µM
GI50 (MOLT-4 leukemia): 2500 nM
TGI (MOLT-4 leukemia): 6.02 µM
GI50 (SF-268 CNS): 1810 nM
TGI (SF-268 CNS): 3.49 µM
GI50 (CCRF-CEM leukemia): 1800 nM
TGI (CCRF-CEM leukemia): 4.68 µM
GI50 (UACC-257 melanoma): 1890 nM
TGI (UACC-257 melanoma): 4.02 µM
GI50 (SF-539 CNS): 1630 nM
TGI (SF-539 CNS): 3000 nM
GI50 (BT-549 breast): 2470 nM
TGI (BT-549 breast): 5.59 µM
GI50 (SK-MEL-2 melanoma): 2040 nM
TGI (SK-MEL-2 melanoma): 4.3 µM
GI50 (NCI-H460 lung): 1430 nM
TGI (NCI-H460 lung): 2860 nM
GI50 (OVCAR-4 ovarian): 1830 nM
TGI (OVCAR-4 ovarian): 3.58 µM
GI50 (IGROV1 ovarian): 1740 nM
TGI (IGROV1 ovarian): 3.18 µM
GI50 (ACHN renal): 1700 nM
TGI (ACHN renal): 3.07 µM
GI50 (RPMI-8226 leukemia): 2720 nM
TGI (RPMI-8226 leukemia): 8.81 µM
GI50 (SF-295 CNS): 1700 nM
TGI (SF-295 CNS): 3.13 µM
GI50 (NCI-H522 lung): 1750 nM
TGI (NCI-H522 lung): 3.39 µM
GI50 (T-47D breast): 1880 nM
TGI (T-47D breast): 3.82 µM
GI50 (SK-MEL-5 melanoma): 1930 nM
TGI (SK-MEL-5 melanoma): 3.79 µM
GI50 (MDA-MB-231 breast): 1780 nM
TGI (MDA-MB-231 breast): 3.19 µM
